According to BindingDB's records for doi:10.1007/BF00173012 (Sandoz Pharma, 1994):
*1 amine or outer side, *2 acyl side, *3 side chain or, on linkers, in order; H or OH if unused. Where a SMILES comes first, the peptide text is derived from it. Bridges are numbered along the chain shown (N, C = ends). [ ]: non-standard residue; d: D form. ξ: configuration not given here. Phe(4-Cl) = N[C@@H](Cc1ccc(Cl)cc1)C(=O)O; d2Nal = N[C@H](Cc1ccc2ccccc2c1)C(=O)O; dNMeF = CN[C@H](Cc1ccccc1)C(=O)O; X1 = O=C(C(N[*:1])S[*:3])[*:2]; dNMeA = CN[C@H](C)C(=O)O; Ahp = NCCCCCCC(=O)O; ξC = NC(CS)C(=O)O; Mpa = O=C(O)CCS

Columns and labels:
[1] = molecular target: Somatostatin receptor type 4 (Mus musculus, UniProt P49660)
[2] = molecular target: T1, Somatostatin receptor type 5 (Rattus norvegicus, UniProt P30938)
T1 sequence (P30938 whole entry): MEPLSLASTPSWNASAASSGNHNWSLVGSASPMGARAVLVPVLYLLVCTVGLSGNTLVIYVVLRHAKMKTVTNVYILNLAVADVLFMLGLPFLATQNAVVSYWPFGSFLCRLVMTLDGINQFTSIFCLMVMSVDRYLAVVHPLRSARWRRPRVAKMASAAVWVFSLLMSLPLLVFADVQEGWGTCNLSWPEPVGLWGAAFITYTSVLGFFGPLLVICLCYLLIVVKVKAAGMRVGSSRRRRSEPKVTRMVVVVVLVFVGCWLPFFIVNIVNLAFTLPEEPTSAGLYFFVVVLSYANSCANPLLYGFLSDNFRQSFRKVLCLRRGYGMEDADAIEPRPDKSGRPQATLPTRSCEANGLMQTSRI

[3] = molecular target: Somatostatin receptor type 3 (Mus musculus, UniProt P30935)
[4] = molecular target: Somatostatin receptor type 2 (Mus musculus, UniProt P30875)
[5] = molecular target: Somatostatin receptor type 1 (Homo sapiens, UniProt P30872)
Sequence of Somatostatin receptor type 1 (P30872 whole entry): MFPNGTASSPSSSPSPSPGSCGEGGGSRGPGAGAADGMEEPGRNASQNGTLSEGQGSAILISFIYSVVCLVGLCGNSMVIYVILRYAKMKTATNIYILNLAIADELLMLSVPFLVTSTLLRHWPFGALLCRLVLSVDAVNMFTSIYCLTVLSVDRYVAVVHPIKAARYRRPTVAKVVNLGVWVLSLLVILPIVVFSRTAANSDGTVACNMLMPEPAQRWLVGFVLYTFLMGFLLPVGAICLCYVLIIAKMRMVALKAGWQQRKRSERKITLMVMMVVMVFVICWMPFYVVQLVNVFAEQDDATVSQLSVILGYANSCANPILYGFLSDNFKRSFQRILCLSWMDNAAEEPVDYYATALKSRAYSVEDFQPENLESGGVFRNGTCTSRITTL

Sequence of Somatostatin receptor type 2 (P30875 whole entry): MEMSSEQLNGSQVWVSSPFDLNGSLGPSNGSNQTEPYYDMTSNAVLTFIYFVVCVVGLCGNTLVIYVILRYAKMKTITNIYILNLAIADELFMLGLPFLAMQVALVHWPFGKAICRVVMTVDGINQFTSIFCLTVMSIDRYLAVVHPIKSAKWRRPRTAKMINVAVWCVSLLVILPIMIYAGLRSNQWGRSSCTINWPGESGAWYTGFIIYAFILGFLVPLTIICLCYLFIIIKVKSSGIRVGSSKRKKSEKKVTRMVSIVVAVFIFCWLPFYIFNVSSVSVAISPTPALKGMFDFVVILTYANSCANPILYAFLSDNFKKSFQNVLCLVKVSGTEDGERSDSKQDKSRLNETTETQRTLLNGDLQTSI
Sequence of Somatostatin receptor type 4 (P49660 whole entry): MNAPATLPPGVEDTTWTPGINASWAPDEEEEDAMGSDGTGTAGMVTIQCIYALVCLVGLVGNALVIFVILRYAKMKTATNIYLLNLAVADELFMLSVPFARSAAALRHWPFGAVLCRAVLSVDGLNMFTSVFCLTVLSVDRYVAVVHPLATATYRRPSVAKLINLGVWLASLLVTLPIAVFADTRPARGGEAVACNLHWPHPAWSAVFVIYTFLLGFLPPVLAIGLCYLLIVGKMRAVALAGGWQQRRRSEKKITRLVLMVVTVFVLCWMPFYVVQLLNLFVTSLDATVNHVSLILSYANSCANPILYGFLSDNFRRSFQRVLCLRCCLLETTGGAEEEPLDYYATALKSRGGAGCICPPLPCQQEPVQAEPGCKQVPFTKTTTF
Sequence of Somatostatin receptor type 3 (P30935 whole entry): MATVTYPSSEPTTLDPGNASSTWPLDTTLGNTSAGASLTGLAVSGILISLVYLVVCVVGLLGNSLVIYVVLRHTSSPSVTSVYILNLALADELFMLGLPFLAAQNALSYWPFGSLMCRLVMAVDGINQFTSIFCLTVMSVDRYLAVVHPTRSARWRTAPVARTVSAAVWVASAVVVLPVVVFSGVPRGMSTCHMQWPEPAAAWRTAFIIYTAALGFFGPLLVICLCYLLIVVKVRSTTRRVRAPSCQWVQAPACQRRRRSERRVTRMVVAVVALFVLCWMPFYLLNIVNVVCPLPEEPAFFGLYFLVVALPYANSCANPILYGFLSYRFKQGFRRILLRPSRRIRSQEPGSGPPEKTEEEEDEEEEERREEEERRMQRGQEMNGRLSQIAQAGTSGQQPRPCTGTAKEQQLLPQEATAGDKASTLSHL

## C[C@@H](O)[C@@H]1NC(=O)[C@H](CCCCN)NC(=O)[C@@H](Cc2c[nH]c3ccccc23)NC(=O)[C@H](Cc2ccccc2)NC(=O)[C@@H]2CSSCC(NC1=O)C(=O)NCCCCCCC(=O)N2 [(1R,4S,7S,10R,13S,16R)-4-[(R)-1-Hydroxyethyl]-7-(4-aminobutyl)-10-(1H-indole-3-ylmethyl)-13-benzyl-28,29-dithia-2,5,8,11,14,17,25-heptaazabicyclo[14.10.4]triacontane-3,6,9,12,15,18,26-heptone] (cyclo([Ahp]CF[dW]KT[ξC]); disulfide 2-7)
[1]
  Ki: 1000 nM
[2]
  Ki: 1.2 nM
[3]
  Ki: 0.07 nM

## CC(C)[C@H](NC(=O)[C@H](CCCCN)NC(=O)[C@@H](Cc1c[nH]c2ccccc12)NC(=O)[C@H](Cc1ccc(O)cc1)NC(=O)[C@H](Cc1ccccc1)NC(=O)[C@H](N)Cc1ccccc1)C(=O)N[C@@H](Cc1ccccc1)C(=O)N[C@H](C(N)=O)[C@@H](C)O [BIM-23058] (H-[dF]FY[dW]KVFT-NH2)
[1]
  Ki: 77.6 nM
[3]
  Ki: 0.03 nM

## CC(C)[C@@H]1NC(=O)[C@H](CCCCN)NC(=O)[C@@H](Cc2c[nH]c3ccccc23)NC(=O)[C@H](Cc2ccc(O)cc2)NC(=O)[C@@H](NC(=O)[C@H](N)Cc2ccccc2)CSSC[C@@H](C(=O)N[C@@H](Cc2c[nH]c3ccccc23)C(N)=O)NC1=O [CAS_71306] (H-[dF]CY[dW]KVCW-NH2; disulfide 2-7)
[1]
  Ki: 170 nM
[4]
  Ki: 0.1 nM
[3]
  Ki: 22.9 nM

## CC(C)[C@@H]1NC(=O)[C@H](CCCCN)NC(=O)[C@@H](Cc2c[nH]c3ccccc23)NC(=O)[C@H](Cc2ccc(O)cc2)NC(=O)CCSSC(C(=O)N[C@@H](Cc2ccccc2)C(N)=O)NC1=O (stereo not given in full) [CAS_117580-24-2] ([Mpa]Y[dW]KV[X1]F-NH2; disulfide 1-6)
[1]
  Ki: 363 nM
[4]
  Ki: 355 nM
[2]
  Ki: 3.89 nM
[3]
  Ki: 245 nM

## C[C@@H](O)[C@H](NC(=O)[C@H](Cc1ccccc1)NC(=O)[C@@H](NC(=O)[C@H](CCCCN)NC(=O)[C@@H](Cc1c[nH]c2ccccc12)NC(=O)[C@H](Cc1ccccc1)NC(=O)[C@H](Cc1ccccc1)NC(=O)[C@H](N)Cc1ccccc1)[C@@H](C)O)C(N)=O [CAS_133073-82-2] (H-[dF]FF[dW]KTFT-NH2)
[1]
  Ki: 18.2 nM
[3]
  Ki: 0.41 nM

## CC(C)[C@H](NC(=O)[C@H](CCCCN)NC(=O)[C@@H](Cc1c[nH]c2ccccc12)NC(=O)[C@H](Cc1ccc(O)cc1)NC(=O)[C@H](Cc1ccccc1)NC(=O)[C@H](N)Cc1ccccc1)C(=O)N[C@@H](Cc1ccccc1)C(=O)N[C@H](Cc1ccc2ccccc2c1)C(N)=O [CAS_150155-61-6] (H-[dF]FY[dW]KVF[d2Nal]-NH2)
[1]
  Ki: 158 nM
[4]
  Ki: > 10000 nM
[5]
  Ki: 1000 nM
[2]
  Ki: 42.6 nM
[3]
  Ki: 0.01 nM

## C[C@@H](O)[C@@H]1NC(=O)[C@H](Cc2ccc(O)cc2)NC(=O)[C@H]([C@@H](C)O)NC(=O)[C@H](CCCCN)NC(=O)[C@H](Cc2c[nH]c3ccccc23)NC(=O)[C@H](Cc2ccccc2)NC(=O)[C@H](Cc2ccccc2)NC(=O)[C@H](CC(N)=O)NC(=O)[C@H](CCCCN)NC(=O)CCCCC[C@@H](C(=O)O)NC(=O)[C@H](CO)NC1=O [CGP-23996]
[1]
  Ki: 1.41 nM
[4]
  Ki: 1 nM
[5]
  Ki: 100 nM
[3]
  Ki: 0.6 nM

## C[C@@H](O)[C@H](NC(=O)[C@@H]1CSSC[C@H](NC(=O)[C@H](N)Cc2ccc3ccccc3c2)C(=O)N[C@@H](Cc2ccc(O)cc2)C(=O)N[C@H](Cc2c[nH]c3ccccc23)C(=O)N[C@@H](CCCCN)C(=O)N[C@@H]([C@@H](C)O)C(=O)N1)C(N)=O [D-Nal-c[Cys-Tyr-D-Trp-Lys-Thr-Cys]-Thr-NH2]
[4]
  Ki: 0.01 nM

## C[C@@H](O)[C@@H]1NC(=O)[C@H](Cc2ccccc2)NC(=O)[C@H]([C@@H](C)O)NC(=O)[C@H](CCCCN)NC(=O)[C@@H](Cc2c[nH]c3ccccc23)NC(=O)[C@H](Cc2ccccc2)NC(=O)[C@H](Cc2ccc(Cl)cc2)NC(=O)[C@H](CC(N)=O)NC(=O)[C@H](CCCCN)NC(=O)[C@@H](N)CSSC[C@@H](C(=O)O)NC(=O)[C@H](CO)NC1=O [EC5-21] (H-CKN[Phe(4-Cl)]F[dW]KTFTSC-OH; disulfide 1-12)
[1]
  Ki: 1.81 nM
[4]
  Ki: 0.01 nM

## C[C@@H](O)[C@@H]1NC(=O)[C@H](CCCCN)NC(=O)[C@@H](Cc2c[nH]c3ccccc23)NC(=O)[C@H](Cc2c[nH]c3ccccc23)NC(=O)[C@H](Cc2ccccc2)NC(=O)CCCCCCNC(=O)[C@H](Cc2ccccc2)NC1=O [L-362855] (cyclo([Ahp]FW[dW]KTF))
[1]
  Ki: 63.1 nM
[2]
  Ki: 0.01 nM

## C[C@H](O)[C@H]1NC(=O)[C@H](CCCCN)NC(=O)[C@@H](Cc2c[nH]c3ccccc23)NC(=O)[C@@H](Cc2ccccc2)NC(=O)[C@@H](C)N(C)C(=O)[C@@H](Cc2ccccc2)N(C)C1=O [N-Methylcyclo(D-Ala-D-Phe-D-Trp-L-Lys-D-Thr-N-methyl-D-Phe-)] (cyclo(K[dT][dNMeF][dNMeA][dF][dW]))
[1]
  Ki: 1000 nM
[2]
  Ki: 407 nM
